Data reported in ChEMBL document CHEMBL1201862, “PubChem BioAssay data set” (2004).
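Tested at 5 concentrations; 48 h exposure; 96-well plates; endpoints linearly interpolated, else capped at highest concentration. GI50: concentration for 50% inhibition of growth.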 Active and inactive are the calls of the source. No stated cut-off is given here; in the data, active = GI50 up to about 1.1 µM and inactive = higher.

Key:
Assay in all cases: growth of human tumour cells (NCI), 48 h
[1] = test system: SN12C
[2] = test system: UO-31
[3] = test system: IGROV-1
[4] = test system: RPMI-8226
[5] = test system: KM12
[6] = test system: TK-10
[7] = test system: NCI-H226
[8] = test system: SK-MEL-5
[9] = test system: LXFL 529
[10] = test system: SF-268
[11] = test system: XF498
[12] = test system: SF-295
[13] = test system: UACC-257
[14] = test system: SNB-19
[15] = test system: EKVX
[16] = test system: SW-620
[17] = test system: ACHN
[18] = test system: SK-MEL-2
[19] = test system: KM-20L2
[20] = test system: 786-0
[21] = test system: RXF 393
[22] = test system: NCI-H23
[23] = test system: HCT-15
[24] = test system: SK-MEL-28
[25] = test system: OVCAR-3
[26] = test system: HCC 2998
[27] = test system: HL-60
[28] = test system: HOP-92
[29] = test system: U-251
[30] = test system: MOLT-4
[31] = test system: HT-29
[32] = test system: A549
[33] = test system: DMS-273
[34] = test system: Malme-3M
[35] = test system: UACC-62
[36] = test system: M14
[37] = test system: SR
[38] = test system: SNB-78
[39] = test system: OVCAR-8
[40] = test system: NCI-H522
[41] = test system: SK-OV-3
[42] = test system: HOP-62
[43] = test system: SF-539
[44] = test system: NCI-H460
[45] = test system: K562
[46] = test system: DLD-1
[47] = test system: SNB-75
[48] = test system: HCT-116
[49] = test system: M19-MEL
[50] = test system: HOP-18
[51] = test system: LOX IMVI
[52] = test system: A498
[53] = test system: CCRF-CEM
[54] = test system: CAKI-1
[55] = test system: COLO 205
[56] = test system: OVCAR-5
[57] = test system: DMS-114
[58] = test system: OVCAR-4

`Cn1nc2ccc3nccc(N(CCO)CCO)c3c2n1` was tested, and the GI50 [1] was > 100 µM (inactive), the GI50 [2] was > 100 µM (inactive) and the GI50 [3] was > 100 µM (inactive). The GI50 [4] was > 100 µM (inactive), the GI50 [5] was > 100 µM (inactive) and the GI50 [6] was > 100 µM (inactive). For the same compound, the GI50 [7] was > 100 µM (inactive), the GI50 [8] was > 100 µM (inactive) and the GI50 [9] was > 100 µM (inactive). The GI50 [10] was > 100 µM (inactive), the GI50 [11] was > 100 µM (inactive) and the GI50 [12] was > 100 µM (inactive). The GI50 [13] was > 100 µM (inactive), the GI50 [14] was > 100 µM (inactive) and the GI50 [15] was > 100 µM (inactive). The GI50 [16] was > 100 µM (inactive), the GI50 [17] was > 100 µM (inactive) and the GI50 [18] was > 100 µM (inactive). For the same compound, the GI50 [19] was > 100 µM (inactive), the GI50 [20] was > 100 µM (inactive) and the GI50 [21] was > 100 µM (inactive). The GI50 [22] was > 100 µM (inactive), the GI50 [23] was over 100 µM and the GI50 [24] was > 100 µM (inactive). For the same compound, the GI50 [25] was > 100 µM (inactive), the GI50 [26] was > 100 µM (inactive) and the GI50 [27] was > 100 µM (inactive). The GI50 [28] was > 100 µM (inactive), the GI50 [29] was > 100 µM (inactive) and the GI50 [30] was > 100 µM (inactive). The GI50 [31] was > 100 µM (inactive), the GI50 [32] was > 100 µM (inactive) and the GI50 [33] was > 100 µM (inactive). For the same compound, the GI50 [34] was > 100 µM (inactive), the GI50 [35] was > 100 µM (inactive) and the GI50 [36] was > 100 µM (inactive). For the same compound, the GI50 [37] was > 100 µM (inactive), the GI50 [38] was > 100 µM (inactive) and the GI50 [39] was > 100 µM (inactive). For the same compound, the GI50 [40] was > 100 µM (inactive), the GI50 [41] was > 100 µM (inactive) and the GI50 [42] was > 100 µM (inactive). The GI50 [43] was > 100 µM (inactive), the GI50 [44] was > 100 µM (inactive) and the GI50 [45] was > 100 µM (inactive). For the same compound, the GI50 [46] was > 100 µM (inactive), the GI50 [47] was > 100 µM (inactive) and the GI50 [48] was > 100 µM (inactive). For the same compound, the GI50 [49] was > 100 µM (inactive), the GI50 [50] was > 100 µM (inactive) and the GI50 [51] was > 100 µM (inactive). The GI50 [52] was > 100 µM (inactive), the GI50 [53] was > 100 µM (inactive) and the GI50 [54] was > 100 µM (inactive). For the same compound, the GI50 [55] was > 100 µM (inactive) and the GI50 [56] was > 100 µM (inactive).
`COC(=O)c1cc(=O)nc2cc3cccccc3n12` was tested, and the GI50 [1] was > 100 µM (inactive), the GI50 [2] was > 100 µM (inactive) and the GI50 [3] was > 100 µM (inactive). The GI50 [4] was > 100 µM (inactive), the GI50 [5] was > 100 µM (inactive) and the GI50 [6] was > 100 µM (inactive). The GI50 [7] was > 100 µM (inactive), the GI50 [8] was > 100 µM (inactive) and the GI50 [9] was > 100 µM (inactive). For the same compound, the GI50 [11] was > 100 µM (inactive), the GI50 [12] was > 100 µM (inactive) and the GI50 [13] was > 100 µM (inactive). The GI50 [14] was > 100 µM (inactive), the GI50 [15] was > 100 µM (inactive) and the GI50 [16] was > 100 µM (inactive). For the same compound, the GI50 [17] was > 100 µM (inactive), the GI50 [19] was > 100 µM (inactive) and the GI50 [20] was > 100 µM (inactive). For the same compound, the GI50 [21] was > 100 µM (inactive), the GI50 [22] was > 100 µM (inactive) and the GI50 [23] was over 100 µM. The GI50 [24] was > 100 µM (inactive), the GI50 [25] was > 100 µM (inactive) and the GI50 [26] was > 100 µM (inactive). The GI50 [27] was > 100 µM (inactive), the GI50 [29] was > 100 µM (inactive) and the GI50 [30] was > 100 µM (inactive). For the same compound, the GI50 [31] was > 100 µM (inactive), the GI50 [32] was > 100 µM (inactive) and the GI50 [34] was > 100 µM (inactive). The GI50 [35] was > 100 µM (inactive), the GI50 [36] was > 100 µM (inactive) and the GI50 [37] was > 100 µM (inactive). The GI50 [39] was > 100 µM (inactive), the GI50 [40] was > 100 µM (inactive) and the GI50 [41] was > 100 µM (inactive). For the same compound, the GI50 [42] was > 100 µM (inactive), the GI50 [43] was > 100 µM (inactive) and the GI50 [44] was 59 µM (inactive). The GI50 [45] was > 100 µM (inactive), the GI50 [46] was > 100 µM (inactive) and the GI50 [47] was > 100 µM (inactive). The GI50 [48] was > 100 µM (inactive), the GI50 [49] was > 100 µM (inactive) and the GI50 [50] was > 100 µM (inactive). For the same compound, the GI50 [51] was > 100 µM (inactive), the GI50 [52] was > 100 µM (inactive) and the GI50 [53] was > 100 µM (inactive). The GI50 [55] was > 100 µM (inactive) and the GI50 [56] was > 100 µM (inactive).
For `CCN(CC)CCC(=O)Nc1ccc2c(c1)C(=O)c1ccc(NC(=O)CCN(CC)CC)cc1C2=O`, the GI50 [1] was 2.84 µM (inactive), the GI50 [2] was 84.1 µM (inactive) and the GI50 [3] was 4.06 µM (inactive). The GI50 [4] was 4.17 µM (inactive), the GI50 [5] was 1.81 µM (inactive) and the GI50 [6] was 5.01 µM (inactive). The GI50 [7] was 0.308 µM (active), the GI50 [8] was 7.08 µM (inactive) and the GI50 [9] was 3.11 µM (inactive). For the same compound, the GI50 [10] was 5.62 µM (inactive), the GI50 [12] was 11.3 µM (inactive) and the GI50 [13] was 14.8 µM (inactive). The GI50 [14] was 5.48 µM (inactive), the GI50 [15] was 3.25 µM (inactive) and the GI50 [16] was 2.24 µM (inactive). The GI50 [17] was 4.07 µM (inactive), the GI50 [18] was 4.79 µM (inactive) and the GI50 [19] was 14.6 µM (inactive). The GI50 [20] was 2.15 µM (inactive), the GI50 [21] was 2.11 µM (inactive) and the GI50 [22] was 8.2 µM (inactive). The GI50 [23] was 2.97 µM, the GI50 [24] was 12.2 µM (inactive) and the GI50 [26] was > 100 µM (inactive). For the same compound, the GI50 [27] was 4.23 µM (inactive), the GI50 [28] was 12.8 µM (inactive) and the GI50 [29] was 9.18 µM (inactive). For the same compound, the GI50 [30] was 2.07 µM (inactive), the GI50 [31] was 2.59 µM (inactive) and the GI50 [32] was 5.18 µM (inactive). The GI50 [33] was 1.19 µM (inactive), the GI50 [35] was 10.4 µM (inactive) and the GI50 [36] was 13.8 µM (inactive). For the same compound, the GI50 [57] was 3.21 µM (inactive), the GI50 [37] was 3.37 µM (inactive) and the GI50 [38] was 5.96 µM (inactive). The GI50 [39] was 4.16 µM (inactive), the GI50 [40] was 11.2 µM (inactive) and the GI50 [41] was 9.73 µM (inactive). The GI50 [42] was 5.37 µM (inactive), the GI50 [43] was 3.51 µM (inactive) and the GI50 [44] was 1.38 µM (inactive). For the same compound, the GI50 [45] was 3.29 µM (inactive), the GI50 [46] was 1.81 µM (inactive) and the GI50 [47] was 14.2 µM (inactive). The GI50 [58] was 4.63 µM (inactive), the GI50 [48] was 2.19 µM (inactive) and the GI50 [49] was > 100 µM (inactive). For the same compound, the GI50 [50] was 0.475 µM (active), the GI50 [51] was 2.19 µM (inactive) and the GI50 [52] was 5.79 µM (inactive). The GI50 [53] was 3.55 µM (inactive), the GI50 [54] was 4.43 µM (inactive) and the GI50 [55] was 3.28 µM (inactive). For the same compound, the GI50 [56] was 11.2 µM (inactive).
